Results taken from patent US11771730B2, “Combination of Rhodiola and Astragalus for the treatment of neurodegenerative diseases” (HUMAN BY NATURE, priority 2018, dated 2023).

Key:
[1] = system: differentiated SH-SY5Y (cells) exposed to Aftin-5; test: Curative test, Alzheimer model induced by Aftin-5 (10 μM): neurite length and cell counts; type: cell-based, human; settings: 10 μM Aftin-5 for 48 hours
Experimental: All tests were performed in three technical replicates using 96-well microplates. After inoculation, SH-SY5Y cells were differentiated by exposure to retinoic acid (10 μM) for 4 days.
After each test, the cells were fixed using a mixture of methanol and acetone at room temperature for 5 minutes, before staining the nuclei with Hoechst and immunostaining the B3 tubulin (secondary antibody conjugated to an Alexa 488 fluorochrome).
Models of neurodegenerative diseases can be established in the laboratory using differentiated neuronal cell lines. Using chemical inducers (Aftin-5, in this case), a model of Alzheimer's disease can be obtained with the human neuroblastoma cell line SH-SY5Y. The neuroprotective and curative properties of the combination of extracts are evaluated following neurotoxic aggression by counting neurons and measuring the length of neurites.
The cells were exposed for 2 days with 10 μM of Aftin-5 alone. […] After fixation and labeling, neurite outgrowth and cell counts were evaluated using MetaXpress (Molecular Devices).
The images were obtained using an ImageXpress® Micro XLS (Molecular Devices) automated microscope with a 20× objective. […] Four fields per well were recorded and analyzed individually.
The images were analyzed using MetaXpress (Molecular Devices) software.

[2] = system: DNA repair systems in HepG2 cells; test: DNA repair (Excision/Resynthesis, BER and NER) on lesion plasmid chip with extracts of treated HepG2 cells; type: cell-based; settings: EMS alone

| SMILES | neurite length compared to the control (inducer alone) [1] | effect of genotoxic on repair of photoproducts (CPD-64), Nucleotide Excision Repair (NER) [2] | effect of genotoxic on Basic Excision Repair (BER) ([2]; at least at the highest concentration tested (1 mM)) |
| --- | --- | --- | --- |
| CC[C@H](CO)Nc1nc(N(C)c2ccccc2)c2ncn(C(C)C)c2n1 [Aftin-5] | significant reduction in neurite length |  |  |
| CCOS(C)(=O)=O [EMS, ethyl methane sulfonate] |  | not affected | exclusively stimulates Basic Excision Repair (BER) |
